Source: US20160361311A1, “LIGANDS THAT TARGET HEPATITIS C VIRUS E2 PROTEIN” (AMERICAN UNIVERSITY OF CAIRO, priority 2014, published 2016)

Columns and labels:
[1] = tested on: HCVpp 2a; test: HCVpp 2a infection of Huh-7 cells, 96-well (luciferase); assay type: cell-based, HCV; details: Hepatitis C virus, Huh-7, 30 h, read-out: IC50 HCVpp
Description: (§1) Pseudotyped retroviral particles harboring HCV envelope proteins (HCVpp) from different genotypes were produced as described previously. A plasmid encoding the feline endogenous virus RD114 glycoprotein [35] was used for the production of RD114pp. Both HCVpp and RD114pp expressed Firefly luciferase.
(§2) To identify ligands that inhibit HCV infection, Huh-7 cells were seeded in 96-well plates and treated the day after with six different concentrations of each ligand diluted in DMSO in duplicate using a Zephyr automated liquid handling workstation (Caliper BioSciences, Hopkinton, Mass.). The final concentration of DMSO (1%) was adjusted to be the same for all ligand concentrations. Cells treated with DMSO were used as negative controls. Cells treated with different concentrations of anti-CD81 (JS-81 from BD Pharmingen, San Jose, Calif.) 1 hour before infection, were also used as positive controls. The third day, RD114pp, HCVpp or HCVcc were inoculated and incubated for 30 hours at 37° C. Firefly and Gaussia luciferase assays were performed as indicated by the manufacturer (Promega, San Luis Obispo, Calif.).
The remaining ligands were next tested against pseudotyped retroviral particles harboring genotype-2a HCV envelope proteins (HCVpp 2a), cell culture produced HCV particles (HCVcc) or RD114pp. As a positive control, an anti-CD81 antibody was used in parallel.

[2] = tested on: HCVpp 1a; test: HCVpp genotype infection of Huh-7 cells, 24-well; assay type: cell-based, HCV; details: Hepatitis C virus
Description: as §1, §2
(§3) The analysis of the effect of 281816 ligand on Huh-7 infection by HCVpp bearing envelope proteins from different genotypes was performed in 24-well plates using the method described above. This ligand was also screened for toxicity to the hepatocytes using the MTS (3-(4,5-dimethylthiazol-2-yl)-5-(3-carboxymethoxyphenyl)-2-(4-sulfophenyl)-2Htetrazolium) assay.
(§4) To determine if 281816 would inhibit HCV genotypes other than 2a, a series of infection assays were performed with HCVpp bearing envelope proteins from a number of different HCV genotypes.

[3] = tested on: HCVpp 1b; test: HCVpp genotype infection of Huh-7 cells, 24-well; assay type: cell-based, HCV; details: Hepatitis C virus
Description: as §1, §2, §3, §4

[4] = tested on: HCVpp 2a; test: HCVpp genotype infection of Huh-7 cells, 24-well; assay type: cell-based, HCV; details: Hepatitis C virus
Description: as §1, §2, §3, §4

[5] = tested on: HCVpp 2b; test: HCVpp genotype infection of Huh-7 cells, 24-well; assay type: cell-based, HCV; details: Hepatitis C virus
Description: as §1, §2, §3, §4

[6] = tested on: HCVpp 4a; test: HCVpp genotype infection of Huh-7 cells, 24-well; assay type: cell-based, HCV; details: Hepatitis C virus
Description: as §1, §2, §3, §4

[7] = tested on: HCVpp 6a; test: HCVpp genotype infection of Huh-7 cells, 24-well; assay type: cell-based, HCV; details: Hepatitis C virus
Description: as §1, §2, §3, §4

[8] = tested on: HCV genotypes 1a, 1b, 2a, 2b, 4a and 6a; test: HCVpp infection assays over all genotypes tested (summary statements); assay type: cell-based
Description: as §1, §2
The analysis of the effect of 281816 ligand on Huh-7 infection by HCVpp bearing envelope proteins from different genotypes was performed in 24-well plates using the method described above. […]

[9] = molecular target: T1, HCV E2 protein binding to native CD81 on Raji cells (Hepatitis C virus genotype 1b, UniProt Q9WMX2); test: Flow cytometry: recombinant HCV E2 binding to native CD81 on Raji cells; assay type: cell-based, human; details: E2 pre-incubated with 1-400 μM ligand; flow cytometry MFI
T1 construct: encoding amino acids 384-656 of the Con1 envelope protein 2 ectodomain (eE2); Protein A (C); made in house; host or cells: E2: HEK293T cells (inferred); CD81: endogenous on Raji cells
T1 sequence (Q9WMX2 384-656): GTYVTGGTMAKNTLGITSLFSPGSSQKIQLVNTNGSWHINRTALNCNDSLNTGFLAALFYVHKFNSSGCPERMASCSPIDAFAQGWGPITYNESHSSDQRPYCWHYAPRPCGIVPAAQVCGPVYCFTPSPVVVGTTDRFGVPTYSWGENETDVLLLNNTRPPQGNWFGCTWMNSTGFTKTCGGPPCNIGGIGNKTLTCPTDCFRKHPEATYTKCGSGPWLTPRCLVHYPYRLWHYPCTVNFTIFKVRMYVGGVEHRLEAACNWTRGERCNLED
Description: The human B cell line, Raji, which expresses high levels of CD81 on its surface was used to determine if ligands could inhibit the binding of HCV-E2 protein to native CD81. Cells were grown in RPMI medium (10% fetal calf serum, 1% penicillin/streptomycin, 1% L-glutamine, 1% non-essential amino acids, 1% sodium pyruvate, pH 7.4) at 37° C. in an atmosphere of 5% CO2. Purified HCV-E2 protein (4 μg) was pre-incubated with 1,5,15, 50, 100 or 400 μM of the ligand 281816 for 25 min RT. After pre-incubation the E2-ligand complex was added to the cells and incubated for 25 min. The complexes were washed from the cells and 0.5 μg of anti E2 antibody (clone H53) was added followed by secondary anti mouse-FITC (Southern Biotechnology). The cells were washed, fixed with 3% paraformaldehyde, and analyzed by flow cytometry (BD FACSCalibur, software: Cell Quest Pro) analysis. The mean fluorescence intensity (MFI) was calculated using Flowjo software (TreesStar, www.flowjo.com).
Ligand 281816 was selected based on the prediction by docking that it would bind to a site on the HCV E2 protein where CD81 binds. To confirm that the binding of 281816 to E2 inhibits the HCV E2-CD81 interaction, flow cytometry was used to monitor the binding of a recombinant form of the E2 protein to native CD81 overexpressed on Raji cells as a function of 281816 concentration.

CSc1ccc2c(c1)C(N1CCN(C)CC1)Cc1ccccc1S2 (stereo not shown) [Ligand 281816]
IC50 [1]: 1.02 µM | IC50 [2]: 2.95 µM | IC50 [3]: 4.66 µM | IC50 [4]: 2.22 µM | IC50 [5]: 2.93 µM | IC50 [6]: 3.44 µM | IC50 [7]: 3.3 µM | IC50 ([8]; Hepatitis C virus, read-out: IC50 range over HCV genotypes): 2.2 to 4.6 µM | block of hepatocyte infection (in words) ([8]; genotypes 1a, 1b, 2a, 2b, 4a and 6a): block infection of hepatocytes by each of the HCV genotypes and subtypes tested | inhibition of E2 protein binding to CD81 on Raji cells [9]: inhibited by 281816 in a dose-dependent manner up to 100 μM
